Assays:
human PPARalpha = target: T1, human PPARalpha (Homo sapiens, UniProt Q07869); assay: Cellular PPARalpha assay (stably transfected HEK luciferase reporter cell line); type: cell-based; settings: PPARalpha reporter cell line (HEK, GR-GAL4-humanPPARalpha-LBD), 24 h incubation
T1 construct: human PPARalpha receptor (amino acids S167-Y468); expressed in transfected cells; host or cells: HEK cells, stably transfected (pcDNA3 construct)
T1 sequence (Q07869 167-468): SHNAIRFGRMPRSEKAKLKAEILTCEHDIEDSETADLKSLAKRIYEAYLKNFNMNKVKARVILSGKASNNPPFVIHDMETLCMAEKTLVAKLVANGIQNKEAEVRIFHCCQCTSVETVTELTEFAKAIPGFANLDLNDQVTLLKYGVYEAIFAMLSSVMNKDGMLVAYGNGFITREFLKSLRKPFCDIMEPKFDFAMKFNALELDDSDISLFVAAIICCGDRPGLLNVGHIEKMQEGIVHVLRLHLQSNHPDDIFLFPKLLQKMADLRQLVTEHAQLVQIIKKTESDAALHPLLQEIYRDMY
Method: Determination of EC50 Values of PPAR Agonists in the Cellular PPARalpha Assay
The potency of substances which bind to human PPARalpha and activate it in an agonistic manner is analyzed using a stably transfected HEK cell line (HEK=human embryo kidney) which is referred to here as PPARalpha reporter cell line. It contains two genetic elements, a luciferase reporter element (pdeltaM-GAL4-Luc-Zeo) and a PPARalpha fusion protein (GR-GAL4-humanPPARalpha-LBD) which mediates expression of the luciferase reporter element depending on a PPARalpha ligand. The stably and constitutively expressed fusion protein GR-GAL4-humanPPARalpha-LBD binds in the cell nucleus of the PPARalpha reporter cell line via the GAL4 protein portion to the GAL4 DNA binding motifs 5′-upstream of the luciferase reporter element which is stably integrated in the genome of the cell line. There is only little expression of the luciferase reporter gene without addition of a PPARalpha ligand if fatty acid-depleted fetal calf serum (cs-FCS) is used in the assay. PPARalpha ligands bind and activate the PPARalpha fusion protein and thereby bring about expression of the luciferase reporter gene. The luciferase which is formed can be detected by means of chemiluminescence via an appropriate substrate.
Construction of the Cell Line
The PPARalpha reporter cell line was prepared in two steps. Firstly, the luciferase reporter element was constructed and stably transfected into HEK cells. For this purpose, five binding sites of the yeast transcription factor GAL4 (in each case 5′-CGGAGTACTGTCCTCCGAG-3′) were cloned in 5′-upstream of a 68 bp-long minimal MMTV promoter (Genbank Accession # V01175). The minimal MMTV promoter section contains a CCAAT box and a TATA element in order to enable efficient transcription by RNA polymerase II. The cloning and sequencing of the GAL4-MMTV construct took place in analogy to the description of Sambrook J. et. al. (Molecular cloning, Cold Spring Harbor Laboratory Press, 1989). Then the complete Photinus pyralis luciferase gene (Genbank Accession # M15077) was cloned in 3′-downstream of the GAL4-MMTV element. After sequencing, the luciferase reporter element consisting of five GAL4 binding sites, MMTV promoter and luciferase gene was subcloned into a plasmid which confers zeozin resistance in order to obtain the plasmid pdeltaM-GAL4-Luc-Zeo. This vector was transfected into HEK cells in accordance with the statements in Ausubel, F. M. et al. (Current protocols in molecular biology, Vol. 1-3, John Wiley & Sons, Inc., 1995).
In a second step, the PPARalpha fusion protein (GR-GAL4-humanPPARalpha-LBD) was introduced into the stable cell clone described. For this purpose, initially the cDNA coding for the N-terminal 76 amino acids of the glucocorticoid receptor (Genbank Accession # P04150) was linked to the cDNA section coding for amino acids 1-147 of the yeast transcription factor GAL4 (Genbank Accession # P04386). The cDNA of the ligand-binding domain of the human PPARalpha receptor (amino acids S167-Y468; Genbank Accession # S74349) was cloned in at the 3′ end of this GR-GAL4 construct. The fusion construct prepared in this way (GR-GAL4-humanPPARalpha-LBD) was subcloned into the plasmid pcDNA3 (from Invitrogen) in order to enable constitutive expression therein by the cytomegalovirus promoter. This plasmid was linearized with a restriction endonuclease and stably transfected into the previously described cell clone containing the luciferase reporter element. The finished PPARalpha reporter cell line which contains a luciferase reporter element and constitutively expresses the PPARalpha fusion protein (GR-GAL4-humanPPARalpha-LBD) was isolated by selection with zeozin (0.5 mg/ml) and G418 (0.5 mg/ml).
The activity of PPARalpha agonists is determined in a 3-day assay which is described below: […]

human PPARgamma = target: T2, human PPARgamma (Homo sapiens, UniProt P37231); assay: Cellular PPARgamma assay (transiently transfected HEK cells, luciferase reporter); type: cell-based; settings: HEK cells transiently transfected with GAL4-humanPPARgammaLBD, 48 h incubation
T2 construct: human PPARgamma receptor (amino acids 1152-Y475); expressed in transfected cells; host or cells: HEK cells, transiently transfected with pcDNA3-GAL4-humanPPARgammaLBD
T2 sequence (P37231 182-477 isoform P37231-2 limits assumed): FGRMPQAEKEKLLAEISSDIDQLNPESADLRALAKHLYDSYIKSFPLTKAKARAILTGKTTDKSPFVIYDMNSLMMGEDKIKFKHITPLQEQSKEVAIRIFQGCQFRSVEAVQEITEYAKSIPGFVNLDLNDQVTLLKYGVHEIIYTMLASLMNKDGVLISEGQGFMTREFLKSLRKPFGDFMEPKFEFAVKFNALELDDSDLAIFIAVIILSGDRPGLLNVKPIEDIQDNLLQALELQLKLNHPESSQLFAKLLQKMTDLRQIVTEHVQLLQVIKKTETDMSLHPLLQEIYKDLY
Description: Determination of EC50 Values of PPAR Agonists in the Cellular PPARgamma Assay
A transient transfection system is employed to determine the cellular PPARgamma activity of PPAR agonists. It is based on the use of a luciferase reporter plasmid (pGL3basic-5×GAL4-TK) and of a PPARgamma expression plasmid (pcDNA3-GAL4-humanPPARgammaLBD). Both plasmids are transiently transfected into human mbryonic kidney cells (HEK cells). There is then expression in these cells of the usion protein GAL4-humanPPARgammaLBD which binds to the GAL4 binding sites of he reporter plasmid. In the presence of a PPARgamma-active ligand, the activated usion protein GAL4-humanPPARgammaLBD induces expression of the luciferase reporter gene, which can be detected in the form of a chemiluminescence signal after addition of a luciferase substrate. As a difference from the stably transfected PPARalpha reporter cell line, in the cellular PPARgamma assay the two components (luciferase reporter plasmid and PPARgamma expression plasmid) are transiently transfected into HEK cells because stable and permanent expression of the PPARgamma fusion protein is cytotoxic.
Construction of the Plasmids
The luciferase reporter plasmid pGL3basic-5×GAL4-TK is based on the vector pGL3basic from Promega. The reporter plasmid is prepared by cloning five binding sites of the yeast transcription factor GAL4 (each binding site with the sequence 5′-CTCGGAGGACAGTACTCCG-3′), together with a 160 bp-long thymidine kinase promoter section (Genbank Accession # AF027128) 5′-upstream into pGL3basic. 3′-downstream of the thymidine kinase promoter is the complete luciferase gene from Photinus pyralis (Genbank Accession # M15077), which is already a constituent of the plasmid pGL3basic used. The cloning and sequencing of the reporter plasmid pGL3basic-5×GAL4-TK took place in analogy to the description in Sambrook J. et. al. (Molecular cloning, Cold Spring Harbor Laboratory Press, 1989).
The PPARgamma expression plasmid pcDNA3-GAL4-humanPPARgammaLBD was prepared by first cloning the cDNA coding for amino acids 1-147 of the yeast transcription factor GAL4 (Genbank Accession # P04386) into the plasmid pcDNA3 (from Invitrogen) 3′-downstream of the cytomegalovirus promoter. Subsequently, the cDNA of the ligand-binding domain (LBD) of the human PPARgamma receptor (amino acids 1152-Y475; Accession # g1480099) 3′-downstream of the GAL4 DNA binding domain was cloned. Cloning and sequencing of the PPARgamma expression plasmid pcDNA3-GAL4-humanPPARgammaLBD again took place in analogy to the description in Sambrook J. et. al. (Molecular cloning, Cold Spring Harbor Laboratory Press, 1989). Besides the luciferase reporter plasmid pGL3basic-5×GAL4-TK and the PPARgamma expression plasmid pcDNA3-GAL4-humanPPARgammaLBD, also used for the cellular PPARgamma assay are the reference plasmid pRL-CMV (from Promega) and the plasmid pBluescript SK(+) from Stratagene. All four plasmids were prepared using a plasmid preparation kit from Qiagen, which ensured a plasmid quality with a minimal endotoxin content, before transfection into HEK cells.
The activity of PPARgamma agonists is determined in a 4-day assay which is described below. Before the transfection, HEK cells are cultivated in DMEM medium (#41965-039, Invitrogen) which is mixed with the following additions: 10% FCS (#16000-044, Invitrogen), 1% penicillin-streptomycin solution (#15140-122, Invitrogen) and 2 mM L-glutamine (#25030-024, Invitrogen).
Firstly, solution A, a transfection mixture which contains all four plasmids previously described in addition to DMEM medium, is prepared. […]

EC50 (human PPARalpha)	EC50 (human PPARgamma)	Structure (SMILES)
54 nM	130 nM	CCCC(C)(OC[C@@H]1CCC[C@H](OCc2nc(-c3cccc(OC)c3)oc2CC)C1)C(=O)O (mixture of isomers) [Example 10, 2-{(1R,3S )-3-[5-Ethyl-2-(3-methoxyphenyl)oxazol-4-ylmethoxy]cyclohexylmethoxy}-2-methylpentanoic acid]
0.38 nM	540 nM	CCc1oc(-c2ccc3ccccc3c2)nc1CO[C@H]1CCC[C@@H](COC(C)(Cc2ccccc2)C(=O)O)C1 (mixture of isomers) [Example 19, 2-{(1R,3S)-3-[5-Ethyl-2-(naphth-2-yl)oxazol-4-ylmethoxy]cyclohexylmethoxy}-2-methyl-3-phenylpropionic acid]
0.39 nM	160 nM	CCCC(C)(OC[C@@H]1CCC[C@H](OCc2nc(-c3ccc4ccccc4c3)oc2C)C1)C(=O)O (mixture of isomers) [Example 15, 2-Methyl-2-{(1R,3S)-3-[5-methyl-2-(naphth-2-yl)oxazol-4-ylmethoxy]-cyclohexylmethoxy}pentanoic acid]
4.5 nM	> 10000 nM	Cc1oc(-c2ccc(F)cc2)nc1COC1CCCC(COC(C)(C)C(=O)O)C1 (stereo not drawn) [**]
1.2 nM	2600 nM	Cc1oc(-c2ccc3ccccc3c2)nc1CO[C@H]1CCC[C@@H](COC(C)(C)C(=O)O)C1 [Example 7, 2-Methyl-2-{(1R,3S)-3-[5-methyl-2-(naphth-2-yl)oxazol-4-ylmethoxy]cyclo-hexylmethoxy}propionic acid]

More lines, now with the values behind:

Structure (SMILES)	EC50 (human PPARalpha)	EC50 (human PPARgamma)
CCCC(C)(OC[C@@H]1CCC[C@H](OCc2nc(-c3ccc(CC(C)C)cc3)oc2CC)C1)C(=O)O (mixture of isomers) [Example 12, 2-{(1R,3S)-3-[5-Ethyl-2-(4-isobutylphenyl)oxazol-4-ylmethoxy]cyclohexylmethoxy}-2-methylpentanoic acid]	12 nM	75 nM
CCc1oc(-c2cccc(OC)c2)nc1CO[C@H]1CCC[C@@H](COC(C)(C)C(=O)O)C1 [Example 1, 2-{(1R,3S)-3-[5-ethyl-2-(3-methoxyphenyl)oxazol-4-ylmethoxy]cyclohexylmethoxy}-2-methylpropionic acid]	45 nM	930 nM
CCc1oc(-c2ccc(CC(C)C)cc2)nc1CO[C@H]1CCC[C@@H](COC(C)(Cc2ccccc2)C(=O)O)C1 (mixture of isomers) [Example 18, 2-{(1R,3S)-3-[5-Ethyl-2-(4-isobutylphenyl)oxazol-4-ylmethoxy]cyclohexylmethoxy}-2-methyl-3-phenylpropionic acid]	2.6 nM	150 nM
COc1cccc(-c2nc(CO[C@H]3CCC[C@@H](COC(C)(C)C(=O)O)C3)c(C(C)C)o2)c1 [Example 9, 2-{(1R,3S)-3-[5-lsopropyl-2-(3-methoxypheny)oxazol-4-ylmethoxy]cyclo-hexylmethoxy}-2-methyl propionic acid]	320 nM	390 nM
